The target in assay [1] is Beta-1 adrenergic receptor (Homo sapiens, UniProt P08588). Format: functional, cell-based.
Assay [2] deals with T1, Peroxisome proliferator-activated receptor gamma (Homo sapiens, UniProt P37231).
T1 sequence (P37231 whole entry): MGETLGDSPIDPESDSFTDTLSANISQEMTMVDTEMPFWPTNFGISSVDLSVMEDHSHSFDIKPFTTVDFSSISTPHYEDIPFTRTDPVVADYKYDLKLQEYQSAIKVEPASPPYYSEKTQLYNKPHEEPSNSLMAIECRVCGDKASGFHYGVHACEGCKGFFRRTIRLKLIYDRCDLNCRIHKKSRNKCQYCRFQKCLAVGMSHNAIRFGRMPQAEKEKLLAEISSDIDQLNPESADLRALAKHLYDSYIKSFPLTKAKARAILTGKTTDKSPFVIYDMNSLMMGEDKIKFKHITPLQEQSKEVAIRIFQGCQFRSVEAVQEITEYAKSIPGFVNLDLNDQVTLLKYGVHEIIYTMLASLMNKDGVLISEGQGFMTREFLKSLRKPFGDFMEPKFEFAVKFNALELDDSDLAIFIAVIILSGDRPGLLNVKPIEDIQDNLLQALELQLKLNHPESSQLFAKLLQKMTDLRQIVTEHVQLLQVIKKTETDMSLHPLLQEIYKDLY
The format is functional.

The target of assay [3] is Hydroxycarboxylic acid receptor 2 (Homo sapiens, UniProt Q8TDS4).
In assay [4] the target is T2, Type-2 angiotensin II receptor (Homo sapiens, UniProt P50052).
T2 sequence (P50052 whole entry): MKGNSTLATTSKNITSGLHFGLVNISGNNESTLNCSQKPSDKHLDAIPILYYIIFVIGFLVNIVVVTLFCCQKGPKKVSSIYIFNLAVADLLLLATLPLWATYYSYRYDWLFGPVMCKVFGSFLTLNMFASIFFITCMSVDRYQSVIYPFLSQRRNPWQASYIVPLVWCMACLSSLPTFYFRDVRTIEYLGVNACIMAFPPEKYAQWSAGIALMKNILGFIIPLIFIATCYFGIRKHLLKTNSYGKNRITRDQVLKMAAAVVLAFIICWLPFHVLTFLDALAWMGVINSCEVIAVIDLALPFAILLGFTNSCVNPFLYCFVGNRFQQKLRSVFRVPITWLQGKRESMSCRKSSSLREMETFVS
The format is functional.

Assay [5] concerns the target T3, Prostaglandin G/H synthase 1 (Rattus norvegicus, UniProt Q63921).
T3 sequence (Q63921 whole entry): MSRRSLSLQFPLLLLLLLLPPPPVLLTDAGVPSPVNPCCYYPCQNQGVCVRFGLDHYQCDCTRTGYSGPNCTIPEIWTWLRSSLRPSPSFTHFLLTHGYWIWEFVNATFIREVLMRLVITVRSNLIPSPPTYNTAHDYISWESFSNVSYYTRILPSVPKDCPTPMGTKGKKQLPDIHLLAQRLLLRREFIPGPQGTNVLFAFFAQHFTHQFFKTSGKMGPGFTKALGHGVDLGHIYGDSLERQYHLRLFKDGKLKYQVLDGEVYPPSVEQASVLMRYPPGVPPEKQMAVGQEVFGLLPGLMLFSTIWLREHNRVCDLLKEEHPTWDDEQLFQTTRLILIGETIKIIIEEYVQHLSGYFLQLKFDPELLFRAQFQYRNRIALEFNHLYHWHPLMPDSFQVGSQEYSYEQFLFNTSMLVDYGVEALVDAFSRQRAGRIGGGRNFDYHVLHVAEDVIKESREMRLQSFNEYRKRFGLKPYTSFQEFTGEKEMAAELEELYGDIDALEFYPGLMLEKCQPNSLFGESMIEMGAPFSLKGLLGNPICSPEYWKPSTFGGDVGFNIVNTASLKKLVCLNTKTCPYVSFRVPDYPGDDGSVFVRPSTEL
The format is functional.

The target in assay [6] is 5-hydroxytryptamine receptor 6 (Homo sapiens, UniProt P50406).
Assay [7] deals with T4, Muscarinic acetylcholine receptor M5 (Homo sapiens, UniProt P08912).
T4 sequence (P08912 whole entry): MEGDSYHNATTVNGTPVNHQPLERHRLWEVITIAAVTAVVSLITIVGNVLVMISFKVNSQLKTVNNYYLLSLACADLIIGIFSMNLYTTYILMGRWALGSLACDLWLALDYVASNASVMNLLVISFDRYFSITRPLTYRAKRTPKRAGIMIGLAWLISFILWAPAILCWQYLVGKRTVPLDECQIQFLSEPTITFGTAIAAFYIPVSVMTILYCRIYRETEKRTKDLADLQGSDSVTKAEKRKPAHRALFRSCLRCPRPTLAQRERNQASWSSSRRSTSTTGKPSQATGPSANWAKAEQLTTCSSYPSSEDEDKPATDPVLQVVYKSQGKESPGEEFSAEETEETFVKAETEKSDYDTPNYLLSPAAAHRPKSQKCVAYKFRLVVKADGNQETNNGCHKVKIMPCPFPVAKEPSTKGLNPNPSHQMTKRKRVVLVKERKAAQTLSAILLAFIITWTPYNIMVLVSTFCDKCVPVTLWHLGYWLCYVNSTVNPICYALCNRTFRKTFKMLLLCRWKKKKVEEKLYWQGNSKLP

The next assay deals with T5, Substance-K receptor (Homo sapiens, UniProt P21452).
T5 sequence (P21452 whole entry): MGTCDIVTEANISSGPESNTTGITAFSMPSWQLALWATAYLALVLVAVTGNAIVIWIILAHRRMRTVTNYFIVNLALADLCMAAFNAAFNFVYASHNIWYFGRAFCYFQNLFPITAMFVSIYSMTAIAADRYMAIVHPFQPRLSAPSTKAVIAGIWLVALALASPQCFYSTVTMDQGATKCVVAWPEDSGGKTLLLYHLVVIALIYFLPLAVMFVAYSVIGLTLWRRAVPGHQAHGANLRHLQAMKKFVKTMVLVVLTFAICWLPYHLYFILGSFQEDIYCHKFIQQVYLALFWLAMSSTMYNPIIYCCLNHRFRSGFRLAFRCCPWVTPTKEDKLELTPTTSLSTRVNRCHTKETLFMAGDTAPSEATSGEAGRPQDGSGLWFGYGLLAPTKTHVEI

In assay [8] the target is 5-hydroxytryptamine receptor 7 (Homo sapiens, UniProt P34969).
In assay [9] the target is 5-hydroxytryptamine receptor 5A (Homo sapiens, UniProt P47898).
The target in another assay is Cannabinoid receptor 1 (Homo sapiens, UniProt P21554). Format: functional.
Assay [10] deals with Gamma-aminobutyric acid type B receptor subunit 1 (Homo sapiens, UniProt Q9UBS5).
Assay [11] has as its target Synaptic vesicular amine transporter (Rattus norvegicus, UniProt Q01827). Format: functional.

For orientation: AC50 means the concentration at which the activity in the assay is half-maximal. Read a low AC50 as greater potency.
Further: assay procedure not described here.

Chain of 5-hydroxytryptamine receptor 5A (P47898 whole entry): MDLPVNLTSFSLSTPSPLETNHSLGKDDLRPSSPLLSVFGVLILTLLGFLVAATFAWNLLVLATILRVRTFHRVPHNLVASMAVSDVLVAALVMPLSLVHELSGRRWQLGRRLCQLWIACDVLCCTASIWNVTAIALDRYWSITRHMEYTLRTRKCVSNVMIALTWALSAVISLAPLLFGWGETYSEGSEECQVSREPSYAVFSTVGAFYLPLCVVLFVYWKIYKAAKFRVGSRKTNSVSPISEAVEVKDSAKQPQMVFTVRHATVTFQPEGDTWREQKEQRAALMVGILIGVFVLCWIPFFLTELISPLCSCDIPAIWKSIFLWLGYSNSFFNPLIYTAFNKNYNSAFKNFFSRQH
Chain of Beta-1 adrenergic receptor (P08588 whole entry): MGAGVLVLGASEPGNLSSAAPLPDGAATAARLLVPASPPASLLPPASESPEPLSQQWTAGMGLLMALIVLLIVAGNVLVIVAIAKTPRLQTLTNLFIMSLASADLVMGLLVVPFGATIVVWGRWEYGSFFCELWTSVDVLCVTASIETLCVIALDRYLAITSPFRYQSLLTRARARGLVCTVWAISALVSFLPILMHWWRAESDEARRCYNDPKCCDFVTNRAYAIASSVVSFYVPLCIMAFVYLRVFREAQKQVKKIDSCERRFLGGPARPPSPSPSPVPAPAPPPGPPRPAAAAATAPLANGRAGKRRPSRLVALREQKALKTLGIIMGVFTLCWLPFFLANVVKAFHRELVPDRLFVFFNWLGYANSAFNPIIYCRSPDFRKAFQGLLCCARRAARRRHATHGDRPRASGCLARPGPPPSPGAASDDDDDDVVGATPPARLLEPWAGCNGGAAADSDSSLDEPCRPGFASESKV
Chain of 5-hydroxytryptamine receptor 7 (P34969 whole entry): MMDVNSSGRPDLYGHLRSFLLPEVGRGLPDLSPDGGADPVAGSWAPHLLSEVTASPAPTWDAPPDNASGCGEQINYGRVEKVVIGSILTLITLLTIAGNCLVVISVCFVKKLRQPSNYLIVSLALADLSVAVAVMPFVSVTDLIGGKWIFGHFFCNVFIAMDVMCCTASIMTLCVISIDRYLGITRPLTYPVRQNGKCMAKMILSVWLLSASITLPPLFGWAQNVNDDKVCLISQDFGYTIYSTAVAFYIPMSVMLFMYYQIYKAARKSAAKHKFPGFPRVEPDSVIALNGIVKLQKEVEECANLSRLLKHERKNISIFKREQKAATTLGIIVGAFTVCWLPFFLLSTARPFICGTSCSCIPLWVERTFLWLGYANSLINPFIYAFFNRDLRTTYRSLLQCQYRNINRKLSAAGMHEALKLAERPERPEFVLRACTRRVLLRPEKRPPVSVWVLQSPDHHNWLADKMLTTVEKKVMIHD
Chain of Gamma-aminobutyric acid type B receptor subunit 1 (Q9UBS5 whole entry): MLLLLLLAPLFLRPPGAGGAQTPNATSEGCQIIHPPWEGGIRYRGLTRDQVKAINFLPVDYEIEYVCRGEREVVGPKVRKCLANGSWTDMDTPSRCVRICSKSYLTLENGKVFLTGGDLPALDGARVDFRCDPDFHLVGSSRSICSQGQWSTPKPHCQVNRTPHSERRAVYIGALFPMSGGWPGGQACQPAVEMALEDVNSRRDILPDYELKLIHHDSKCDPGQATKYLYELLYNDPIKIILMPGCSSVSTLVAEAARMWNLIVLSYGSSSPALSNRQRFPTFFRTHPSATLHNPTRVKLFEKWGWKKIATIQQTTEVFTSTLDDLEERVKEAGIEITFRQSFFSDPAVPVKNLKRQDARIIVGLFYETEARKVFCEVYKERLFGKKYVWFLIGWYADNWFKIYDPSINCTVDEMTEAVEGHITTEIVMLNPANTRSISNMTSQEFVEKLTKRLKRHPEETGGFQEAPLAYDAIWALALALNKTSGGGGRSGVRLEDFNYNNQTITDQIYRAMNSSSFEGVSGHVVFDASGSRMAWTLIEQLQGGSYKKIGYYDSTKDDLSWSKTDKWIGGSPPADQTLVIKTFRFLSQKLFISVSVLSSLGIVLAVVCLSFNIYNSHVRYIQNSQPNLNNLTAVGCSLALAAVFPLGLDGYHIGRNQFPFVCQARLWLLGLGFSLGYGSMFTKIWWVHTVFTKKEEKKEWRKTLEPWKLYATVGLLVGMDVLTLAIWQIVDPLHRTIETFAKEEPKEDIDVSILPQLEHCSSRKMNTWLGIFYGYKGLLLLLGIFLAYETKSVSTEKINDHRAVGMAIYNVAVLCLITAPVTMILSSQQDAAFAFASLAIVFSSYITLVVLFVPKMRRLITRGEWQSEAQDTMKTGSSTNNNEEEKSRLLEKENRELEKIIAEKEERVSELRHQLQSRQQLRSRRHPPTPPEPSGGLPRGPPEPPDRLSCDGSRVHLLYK
Chain of Cannabinoid receptor 1 (P21554 whole entry): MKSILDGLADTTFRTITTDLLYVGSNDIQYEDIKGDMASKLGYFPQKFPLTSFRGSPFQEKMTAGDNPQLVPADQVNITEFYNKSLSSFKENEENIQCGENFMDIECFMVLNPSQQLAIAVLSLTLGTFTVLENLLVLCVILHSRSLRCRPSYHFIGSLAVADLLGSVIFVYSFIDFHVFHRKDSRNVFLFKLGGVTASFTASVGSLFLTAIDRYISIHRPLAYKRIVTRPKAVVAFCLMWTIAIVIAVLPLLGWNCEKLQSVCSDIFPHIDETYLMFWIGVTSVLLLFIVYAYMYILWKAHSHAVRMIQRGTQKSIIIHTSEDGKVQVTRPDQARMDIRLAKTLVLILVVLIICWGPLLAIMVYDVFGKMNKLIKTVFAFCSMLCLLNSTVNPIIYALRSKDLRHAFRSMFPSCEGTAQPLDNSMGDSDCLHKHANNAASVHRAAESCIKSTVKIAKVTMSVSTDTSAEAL
Chain of 5-hydroxytryptamine receptor 6 (P50406 whole entry): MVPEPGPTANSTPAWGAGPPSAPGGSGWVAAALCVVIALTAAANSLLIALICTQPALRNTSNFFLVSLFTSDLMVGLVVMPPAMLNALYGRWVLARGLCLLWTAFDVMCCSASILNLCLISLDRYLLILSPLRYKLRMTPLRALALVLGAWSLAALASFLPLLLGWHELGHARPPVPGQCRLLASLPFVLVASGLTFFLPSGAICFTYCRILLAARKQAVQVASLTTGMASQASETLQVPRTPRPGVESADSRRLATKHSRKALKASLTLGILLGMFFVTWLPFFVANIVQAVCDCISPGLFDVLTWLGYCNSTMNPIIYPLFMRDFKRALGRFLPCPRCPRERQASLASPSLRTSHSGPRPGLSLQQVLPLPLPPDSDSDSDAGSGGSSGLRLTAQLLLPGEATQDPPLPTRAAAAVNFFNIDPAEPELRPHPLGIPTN
Chain of Hydroxycarboxylic acid receptor 2 (Q8TDS4 whole entry): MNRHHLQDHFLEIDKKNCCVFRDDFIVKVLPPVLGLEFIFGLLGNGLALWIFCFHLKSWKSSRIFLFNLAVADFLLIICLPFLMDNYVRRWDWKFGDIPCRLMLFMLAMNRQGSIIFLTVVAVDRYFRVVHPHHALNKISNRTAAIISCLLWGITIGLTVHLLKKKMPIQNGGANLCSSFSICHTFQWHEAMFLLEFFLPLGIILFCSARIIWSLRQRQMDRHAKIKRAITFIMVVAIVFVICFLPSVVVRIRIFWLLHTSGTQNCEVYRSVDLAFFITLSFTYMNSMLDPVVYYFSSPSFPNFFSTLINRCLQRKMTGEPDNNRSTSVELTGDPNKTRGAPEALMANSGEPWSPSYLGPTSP
Chain of Synaptic vesicular amine transporter (Q01827 whole entry): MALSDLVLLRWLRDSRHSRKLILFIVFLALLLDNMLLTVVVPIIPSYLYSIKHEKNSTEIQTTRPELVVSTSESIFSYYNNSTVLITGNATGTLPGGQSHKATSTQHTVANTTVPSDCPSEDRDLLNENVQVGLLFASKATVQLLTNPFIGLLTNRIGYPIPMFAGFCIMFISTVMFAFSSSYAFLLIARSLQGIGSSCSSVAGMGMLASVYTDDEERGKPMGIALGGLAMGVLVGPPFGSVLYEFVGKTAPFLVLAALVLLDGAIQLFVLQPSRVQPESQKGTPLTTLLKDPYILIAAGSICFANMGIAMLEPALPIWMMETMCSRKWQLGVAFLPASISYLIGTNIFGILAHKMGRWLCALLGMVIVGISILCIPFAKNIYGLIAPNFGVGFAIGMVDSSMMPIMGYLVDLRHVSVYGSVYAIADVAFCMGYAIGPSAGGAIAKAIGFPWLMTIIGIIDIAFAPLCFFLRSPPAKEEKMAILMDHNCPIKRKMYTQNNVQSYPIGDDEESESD

`C=CCN1CCc2nc(N)sc2CC1` [TALIPEXOLE]: the AC50 in assay [1] was above 30 µM.

As to `CCOC(=O)C(C)(C)Oc1ccc(Cl)cc1` [CLOFIBRATE], in assay [2], the AC50 was above 30 µM.

Consider `CCC(=O)O[C@](Cc1ccccc1)(c1ccccc1)[C@H](C)CN(C)C` [PROPOXYPHENE], for which the AC50 in [3] was above 10 µM.

In turn, `CC(C)N(CCCCOCC(=O)O)c1cnc(-c2ccccc2)c(-c2ccccc2)n1` displayed an AC50 in assay [1] above 30 µM.

For the compound `O=C1Nc2ccc(Cl)cc2C(c2ccccc2Cl)=NC1O` (stereo unspecified) [LORAZEPAM], the AC50 in assay [4] was above 100 µM; in assay [3], above 10 µM.

As to `CCOC(=O)c1ncn2c1CN(C)C(=O)c1cc(F)ccc1-2` [FLUMAZENIL], the AC50 in assay [5] is above 30 µM.

For the compound `CO/N=C(\C(=O)N[C@@H]1C(=O)N2C(C(=O)O)=C(CSc3nc(=O)c(=O)[nH]n3C)CS[C@H]12)c1csc(N)n1` [CEFTRIAXONE], in [2], the activity was half-maximal at 1.4 µM (AC50).

As for `Cc1ccnc2c1NC(=O)c1cccnc1N2C1CC1` [NEVIRAPINE], the AC50 (in assay [6]; in assay [7]; on Substance-K receptor; in assay [8]; in [9]; at Cannabinoid receptor 1) was above 10 µM throughout.

Consider `C[N+]12CCC(CC1)C(OC(=O)C(O)(c1ccccc1)c1ccccc1)C2` (stereo unspecified), for which, in assay [7], half-maximal activity (AC50) was put at 0.0068 µM.

Take `Fc1ccc([C@@H]2CCNC[C@H]2COc2ccc3c(c2)OCO3)cc1` [PAROXETINE]: the AC50 in assay [10] is above 10 µM; in assay [4], above 100 µM; at Substance-K receptor, above 10 µM; in assay [8], above 10 µM; in assay [9] it was 5.63 µM; in assay [11], 2.5 µM. This compound also gave an AC50 on Cannabinoid receptor 1 above 10 µM.

Regarding `CC(C)NC[C@H](O)COc1ccc(CC(N)=O)cc1` [ESATENOLOL], the AC50 (in assay [6]; in [8]; on Cannabinoid receptor 1) was above 10 µM throughout.

On to `NNC(=O)c1ccncc1` [ISONIAZID], for which the AC50 (in assay [6]; in assay [8]; on Cannabinoid receptor 1) was above 10 µM throughout.

As for `CN1CCN=C(c2ccccc2)c2cc(Cl)ccc21` [MEDAZEPAM], the AC50 in assay [1] is above 30 µM.

For `CC(c1cc2ccccc2s1)N(O)C(N)=O` (stereo unspecified) [ZILEUTON], in [11], the AC50 was above 30 µM.

For the compound `CCOC(=O)[C@@H](N)Cc1ccc(-c2cc(O[C@H](c3ccc(Cl)cc3-n3ccc(C)n3)C(F)(F)F)nc(N)n2)cc1` [TELOTRISTAT ETHYL], in assay [2], the AC50 is above 30 µM.

In [10], `COc1cc(N)c(Cl)cc1C(=O)NC1CCN(CCCOc2ccc(F)cc2)CC1OC` (stereo unspecified) [CISAPRIDE] came in with an AC50 above 10 µM.

`O=C(CCCN1CCC(O)(c2ccc(Br)cc2)CC1)c1ccc(F)cc1` [BROMPERIDOL]: in assay [1], the AC50 was above 30 µM.

Consider `CO/N=C(\C(=O)N[C@@H]1C(=O)N2C(C(=O)O)=CCS[C@H]12)c1csc(N)n1` [CEFTIZOXIME], for which the AC50 in assay [2] was above 30 µM.

For the compound `CCCCOc1ccc(C(=O)CCN2CCCCC2)cc1` [DYCLONINE], the AC50 is above 10 µM in [10]; above 10 µM in assay [6]; 15.8 µM in assay [7]; above 10 µM at Substance-K receptor; above 10 µM in [8]; above 10 µM in assay [9]. This compound also showed an AC50 on Cannabinoid receptor 1 above 10 µM.

(Values after ChEMBL document CHEMBL5291721, “A preclinical secondary pharmacology resource illuminates target-adverse drug reaction associations of marketed drugs” (Nat Commun, 2023).)
